Results from US8829021B2, “Treatment of pediatric tumors” (Sigma-Tau Industrie Farmaceutiche Riunite S.p.A., priority 2007, dated 2014).
Where “and” joins values, the source holds several entries; their conditions need not be identical. Equal entries are not always repeated.

What was measured:
[1] = tested on: human pediatric tumor xenograft models; assay: In vivo antitumoral activity on different pediatric tumor xenograft models (overall); parameters: species or system nude athymic mice (human tumor xenograft); conditions: all models, compared with CPT-11; 30 mg/kg i.v., q4dx4
Method: (§1) The antitumor effect was evaluated against different human pediatric tumor models: SK-ND-AS (neuroblastoma); PSFK (primitive neuroectodermal tumors/PNET); TE-671 (rhabdomyosarcoma). ST 1968 was evaluated in comparison to CPT-11 (irinotecan) by intravenously delivery of 30 mg/10 ml/kg for ST1968 and 50 mg/10 ml/kg for CPT-11 according to the schedule q4dx4.
(§2) Exponentially growing tumor cells were injected s.c. into nude athymic mice. The number of tumor cells was previously chosen by a growth curve. Mice were housed inside cages of makrolon (33.2×15×13 cm) with stainless steel cover-feed and sterilized and dust-free bedding cobs. Animals were housed under a light-dark cycle, keeping temperature and humidity constant. Parameters of the animal rooms were assessed as follows: 22±2° C. temperature, 55±10% relative humidity, about 15-20 filtered air changes/hour and 12 hour circadian cycle of artificial light (7 a.m., 7 p.m.). At request, the environmental conditions were monitored and the data are retained in Animal Housing Archives. Drinking water was supplied ad libitum. […]
Tumor growth was followed by biweekly measurements of tumor diameters with a Vernier caliper. Tumor volume (TV, mm^3) was calculated as: [length (mm)×width (mm)^2]/2, where the width and the length are the shortest and the longest diameters of each tumor, respectively. […]

[2] = tested on: TE-671 (rhabdomyosarcoma); assay: In vivo antitumoral activity, TE-671 rhabdomyosarcoma xenograft; parameters: species or system nude athymic mice (human tumor xenograft); conditions: 30 mg/kg i.v., q4dx4
Method: (§3) Exponentially growing tumor cells were injected s.c. into nude athymic mice. The number of tumor cells was previously chosen by a growth curve. […] Animals were housed under a light-dark cycle, keeping temperature and humidity constant. Parameters of the animal rooms were assessed as follows: 22±2° C. temperature, 55±10% relative humidity, about 15-20 filtered air changes/hour and 12 hour circadian cycle of artificial light (7 a.m., 7 p.m.). At request, the environmental conditions were monitored and the data are retained in Animal Housing Archives. Drinking water was supplied ad libitum. Each mouse was offered daily a complete pellet diet (GLP 4RF21, Mucedola) throughout the study. The analytical certificates of animal food and water are retained at Sigma-Tau premises. All animals were weighed before starting the experiment and were subdivided into the different dosage groups.
(§4) Tumor growth was followed by biweekly measurements of tumor diameters with a Vernier caliper. Tumor volume (TV, mm^3) was calculated as: [length (mm)×width (mm)^2]/2, where the width and the length are the shortest and the longest diameters of each tumor, respectively.
(§5) The efficacy of the drug treatment was assessed as tumor volume inhibition (TVI %) in treated versus control mice, calculated as: 100−[(mean tumor volume of treated animals/mean tumor volume of control animals)×100].

[3] = Toxicity of the drug treatments in tumor-bearing mice; type: in vivo, nude athymic mice; conditions: treatment i.v., q4dx4
Method: as §1, §2
The toxicity of the drug treatments was determined as: body weight loss percent (% BWL max)=100−(mean BWday x/mean BWday 1×100), where BWx is the mean BW at the day of maximal loss during the treatment and BW1 is the mean BW on the 1st day of treatment.

SK-N-AS (neuroblastoma) = assay: In vivo antitumoral activity, SK-N-AS neuroblastoma xenograft; parameters: species or system nude athymic mice (human tumor xenograft); conditions: SK-N-AS xenograft s.c. in nude mice; 30 mg/kg i.v., q4dx4
Method: as §3, §4, §5

[4] = tested on: PFSK (primitive neuroectodermal tumors/PNET); assay: In vivo antitumoral activity, PFSK primitive neuroectodermal tumor (PNET) xenograft; parameters: species or system nude athymic mice (human tumor xenograft); conditions: 30 mg/kg i.v., q4dx4
Method: as §3, §4, §5

SMILES: CC[C@@]1(O)C(=O)OCc2c1cc1n(c2=O)Cc2c-1nc1ccccc1c2/C=N\OCCN [ST1968, 7-(2-amino)ethoxyiminomethylcamptothecin]
- antitumor activity / complete tumor regressions (in words) [1]: appreciable rate of complete tumor regressions in all models
- TVI % (tumor volume inhibition) ([2]; TE-671 xenograft s.c. in nude mice, 30 mg/kg): 100% and 99%
- complete responses (in words) ([2]; rhabdomyosarcoma model): high rate of complete responses
- tolerability / signs of acute or delayed toxicity (in words) [3]: generally well tolerated by mice with no signs of acute or delayed toxicity
- TVI % (tumor volume inhibition) (SK-N-AS (neuroblastoma)): 98%
- TVI % (tumor volume inhibition) ([4]; PFSK xenograft s.c. in nude mice, 30 mg/kg): 99% and 100%
- complete responses (in words) ([4]; PNET model): high rate of complete responses
